From ChEMBL document CHEMBL1201862, “PubChem BioAssay data set” (2004)
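Interpolation was linear, between the two tested concentrations surrounding the appropriate level; five concentrations were tested over 48 hours in 96-well plates. At the GI50, growth is halved.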 The source made the active and inactive calls. Cut-off read from the data, not from the text of the source: active = GI50 up to about 1.1 µM and inactive = higher.

How the values were obtained:
Experiment in all cases: inhibition of tumour cell growth, NCI panel, 48 h
DU-145 = system: DU-145
M14 = system: M14
KM12 = system: KM12
SK-MEL-2 = system: SK-MEL-2
OVCAR-4 = system: OVCAR-4
T47D = system: T47D
SF-295 = system: SF-295
EKVX = system: EKVX
HT-29 = system: HT-29
UACC-62 = system: UACC-62
UO-31 = system: UO-31
CCRF-CEM = system: CCRF-CEM
MOLT-4 = system: MOLT-4
SN12C = system: SN12C
SK-MEL-5 = system: SK-MEL-5
Malme-3M = system: Malme-3M
A498 = system: A498
IGROV-1 = system: IGROV-1
OVCAR-3 = system: OVCAR-3
SR = system: SR

Structure (SMILES) | GI50 (DU-145) | GI50 (M14) | GI50 (KM12) | GI50 (SK-MEL-2) | GI50 (OVCAR-4) | GI50 (T47D) | GI50 (SF-295) | GI50 (EKVX) | GI50 (HT-29) | GI50 (UACC-62) | GI50 (UO-31) | GI50 (CCRF-CEM) | GI50 (MOLT-4) | GI50 (SN12C) | GI50 (SK-MEL-5) | GI50 (Malme-3M) | GI50 (A498) | GI50 (IGROV-1) | GI50 (OVCAR-3) | GI50 (SR)
O=C1c2ccccc2C(=O)c2c(NCCCNCCO)ccc(NCCCNCCO)c21 | 10.2 µM (inactive) | 9.68 µM (inactive) | 5.57 µM (inactive) | 13.2 µM (inactive) | 9.82 µM (inactive) | 8.91 µM (inactive) | 7.33 µM (inactive) | 11.8 µM (inactive) | 4.82 µM (inactive) | 9.42 µM (inactive) | 13.1 µM (inactive) | 3.08 µM (inactive) | 3 µM (inactive) | 4 µM (inactive) | 13.4 µM (inactive) | 13.9 µM (inactive) | 15.9 µM (inactive) | 15.7 µM (inactive) | 5.71 µM (inactive) | 3.65 µM (inactive)
CCOC(=O)C(NC(=O)CC(C)C)(N1CCN(c2cc3c(cc2F)c(=O)c(C(=O)O)cn3C2CC2)CC1)C(F)(F)F (stereo not given) | 34.4 µM (inactive) | 20 µM (inactive) | 13.6 µM (inactive) | 20 µM (inactive) | 20.8 µM (inactive) | 22.9 µM (inactive) | 21.3 µM (inactive) | 23.4 µM (inactive) | 29.3 µM (inactive) | 15.2 µM (inactive) | 17.9 µM (inactive) | 3.32 µM (inactive) | 5.71 µM (inactive) | 27.5 µM (inactive) | 12.7 µM (inactive) | 17.6 µM (inactive) | 1.73 µM (inactive) | 12.6 µM (inactive) | 14.7 µM (inactive) | 11.6 µM (inactive)
O=C1O/C(=C(\Br)c2ccc([N+](=O)[O-])cc2)c2ccccc21 | > 100 µM (inactive) | > 100 µM (inactive) | > 100 µM (inactive) | 46.2 µM (inactive) | > 100 µM (inactive) | 86.5 µM (inactive) | > 100 µM (inactive) | > 100 µM (inactive) | 41.1 µM (inactive) | 58.5 µM (inactive) | 62.8 µM (inactive) | 21.4 µM (inactive) | 27.8 µM (inactive) | > 100 µM (inactive) | > 75.7 µM (inactive) | > 49.9 µM (inactive) | > 100 µM (inactive) | > 100 µM (inactive) | > 88.5 µM (inactive) | 28.8 µM (inactive)
O/N=C1/Nc2ccccc2C(=S)N2CSCC12 (stereo not given) | > 100 µM (inactive) | 81.3 µM (inactive) | 33 µM (inactive) | > 100 µM (inactive) | > 100 µM (inactive) | 54.2 µM (inactive) | 63.1 µM (inactive) | > 100 µM (inactive) | 36.9 µM (inactive) | 87.5 µM (inactive) | > 100 µM (inactive) | 20.2 µM (inactive) | > 100 µM (inactive) | 34 µM (inactive) | 23.4 µM (inactive) | > 100 µM (inactive) | 68.7 µM (inactive) | > 100 µM (inactive) | > 100 µM (inactive) | 22.9 µM (inactive)
COc1cc2c3c(c4cc(OC)c(OC)cc4c2cc1OC)[C@H](O)[C@@H]1CCCN1C3 | < 0.0243 µM (active) | < 0.0332 µM (active) | < 0.0232 µM (active) | < 0.0167 µM (active) | < 0.0234 µM (active) | 0.0269 µM (active) | < 0.0222 µM (active) | < 0.0217 µM (active) | < 0.0191 µM (active) | < 0.0337 µM (active) | < 0.0337 µM (active) | < 0.0272 µM (active) | < 0.01 µM (active) | < 0.0303 µM (active) | < 0.0259 µM (active) | < 0.0384 µM (active) | < 0.0208 µM (active) | < 0.0275 µM (active) | 0.0384 µM (active) | 0.029 µM (active)
CC1(C)C(=O)N=C(N)N1C(=O)OCc1ccccc1 | > 100 µM (inactive) | > 100 µM (inactive) | > 100 µM (inactive) | > 100 µM (inactive) | > 100 µM (inactive) | > 100 µM (inactive) | > 100 µM (inactive) | > 100 µM (inactive) | > 100 µM (inactive) | > 100 µM (inactive) | 67.6 µM (inactive) | > 100 µM (inactive) | > 100 µM (inactive) | > 100 µM (inactive) | > 100 µM (inactive) | > 100 µM (inactive) | > 100 µM (inactive) | > 100 µM (inactive) | > 100 µM (inactive) | > 100 µM (inactive)
